Measured values: ChEMBL document CHEMBL1201862, “PubChem BioAssay data set” (2004)
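Cultured in 96-well plates, cells were exposed to test compound for 48 hours across five concentrations. At the GI50, growth is halved.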 Active and inactive are the calls of the source. Rule as the data show it: active = GI50 up to about 1.1 µM and inactive = higher.

Key:
Assay in all cases: NCI anticancer screen, dose series, 48 h
786-0 = system: 786-0
A498 = system: A498
A549 = system: A549
ACHN = system: ACHN
CAKI-1 = system: CAKI-1
CCRF-CEM = system: CCRF-CEM
COLO 205 = system: COLO 205
DLD-1 = system: DLD-1
DMS-114 = system: DMS-114
DMS-273 = system: DMS-273
EKVX = system: EKVX
HCC 2998 = system: HCC 2998
HCT-116 = system: HCT-116
HCT-15 = system: HCT-15
HL-60 = system: HL-60
HOP-18 = system: HOP-18
HOP-62 = system: HOP-62
HOP-92 = system: HOP-92
HT-29 = system: HT-29
IGROV-1 = system: IGROV-1
K562 = system: K562
KM-20L2 = system: KM-20L2
KM12 = system: KM12
LOX IMVI = system: LOX IMVI
LXFL 529 = system: LXFL 529
M14 = system: M14
M19-MEL = system: M19-MEL
MOLT-4 = system: MOLT-4
Malme-3M = system: Malme-3M
NCI-H226 = system: NCI-H226
NCI-H23 = system: NCI-H23
NCI-H460 = system: NCI-H460
NCI-H522 = system: NCI-H522
OVCAR-4 = system: OVCAR-4
OVCAR-5 = system: OVCAR-5
OVCAR-8 = system: OVCAR-8
RPMI-8226 = system: RPMI-8226
RXF 393 = system: RXF 393
SF-268 = system: SF-268
SF-295 = system: SF-295
SF-539 = system: SF-539
SK-MEL-28 = system: SK-MEL-28
SK-MEL-2 = system: SK-MEL-2
SK-MEL-5 = system: SK-MEL-5
SK-OV-3 = system: SK-OV-3
SN12C = system: SN12C
SNB-19 = system: SNB-19
SNB-75 = system: SNB-75
SNB-78 = system: SNB-78
SW-620 = system: SW-620
TK-10 = system: TK-10
U-251 = system: U-251
UACC-257 = system: UACC-257
UACC-62 = system: UACC-62
UO-31 = system: UO-31
XF498 = system: XF498
OVCAR-3 = system: OVCAR-3
SR = system: SR

For `CC(C)(C)C1CCC2(CC1)c1[nH]c3ccccc3c1C1(CCC(C(C)(C)C)CC1)c1[nH]c3ccccc3c12` (configuration not stated), the GI50 (786-0) was 7.08 µM (inactive), the GI50 (A498) was > 100 µM (inactive) and the GI50 (A549) was > 100 µM (inactive). The GI50 (ACHN) was > 100 µM (inactive), the GI50 (CAKI-1) was > 100 µM (inactive) and the GI50 (CCRF-CEM) was > 100 µM (inactive). The GI50 (COLO 205) was 88.9 µM (inactive), the GI50 (DLD-1) was > 100 µM (inactive) and the GI50 (DMS-114) was 25.9 µM (inactive). The GI50 (DMS-273) was > 100 µM (inactive), the GI50 (EKVX) was > 100 µM (inactive) and the GI50 (HCC 2998) was > 100 µM (inactive). For the same compound, the GI50 (HCT-116) was 41.6 µM (inactive), the GI50 (HCT-15) was over 100 µM and the GI50 (HL-60) was > 100 µM (inactive). The GI50 (HOP-18) was > 100 µM (inactive), the GI50 (HOP-62) was > 100 µM (inactive) and the GI50 (HOP-92) was > 100 µM (inactive). For the same compound, the GI50 (HT-29) was > 100 µM (inactive), the GI50 (IGROV-1) was > 100 µM (inactive) and the GI50 (K562) was > 100 µM (inactive). For the same compound, the GI50 (KM-20L2) was > 100 µM (inactive), the GI50 (KM12) was > 100 µM (inactive) and the GI50 (LOX IMVI) was > 100 µM (inactive). For the same compound, the GI50 (LXFL 529) was > 100 µM (inactive), the GI50 (M14) was > 100 µM (inactive) and the GI50 (M19-MEL) was > 100 µM (inactive). The GI50 (MOLT-4) was > 100 µM (inactive), the GI50 (Malme-3M) was > 100 µM (inactive) and the GI50 (NCI-H226) was > 100 µM (inactive). For the same compound, the GI50 (NCI-H23) was > 100 µM (inactive), the GI50 (NCI-H460) was > 100 µM (inactive) and the GI50 (NCI-H522) was > 100 µM (inactive). For the same compound, the GI50 (OVCAR-4) was > 100 µM (inactive), the GI50 (OVCAR-5) was > 100 µM (inactive) and the GI50 (OVCAR-8) was > 100 µM (inactive). The GI50 (RPMI-8226) was > 100 µM (inactive), the GI50 (RXF 393) was > 100 µM (inactive) and the GI50 (SF-268) was > 100 µM (inactive). The GI50 (SF-295) was > 100 µM (inactive), the GI50 (SF-539) was > 100 µM (inactive) and the GI50 (SK-MEL-28) was > 100 µM (inactive). The GI50 (SK-MEL-2) was > 100 µM (inactive), the GI50 (SK-MEL-5) was > 100 µM (inactive) and the GI50 (SK-OV-3) was > 100 µM (inactive). For the same compound, the GI50 (SN12C) was > 100 µM (inactive), the GI50 (SNB-19) was > 100 µM (inactive) and the GI50 (SNB-75) was 70.1 µM (inactive). The GI50 (SNB-78) was > 100 µM (inactive), the GI50 (SW-620) was 39.4 µM (inactive) and the GI50 (TK-10) was > 100 µM (inactive). The GI50 (U-251) was 87.3 µM (inactive), the GI50 (UACC-257) was > 100 µM (inactive) and the GI50 (UACC-62) was > 100 µM (inactive). The GI50 (UO-31) was > 100 µM (inactive) and the GI50 (XF498) was > 100 µM (inactive).
With `COc1ccc(C)cc1C1CCC(=O)O1` (configuration not stated) the GI50 (786-0) was > 100 µM (inactive), the GI50 (A498) was > 100 µM (inactive) and the GI50 (A549) was > 100 µM (inactive). The GI50 (ACHN) was > 100 µM (inactive), the GI50 (CCRF-CEM) was > 100 µM (inactive) and the GI50 (COLO 205) was > 100 µM (inactive). The GI50 (DLD-1) was > 100 µM (inactive), the GI50 (DMS-114) was > 100 µM (inactive) and the GI50 (DMS-273) was > 100 µM (inactive). The GI50 (EKVX) was > 100 µM (inactive), the GI50 (HCC 2998) was > 100 µM (inactive) and the GI50 (HCT-116) was > 100 µM (inactive). The GI50 (HCT-15) was over 100 µM, the GI50 (HL-60) was > 100 µM (inactive) and the GI50 (HOP-18) was > 100 µM (inactive). The GI50 (HOP-62) was > 100 µM (inactive), the GI50 (HT-29) was > 100 µM (inactive) and the GI50 (IGROV-1) was > 100 µM (inactive). For the same compound, the GI50 (K562) was > 100 µM (inactive), the GI50 (KM-20L2) was > 100 µM (inactive) and the GI50 (KM12) was > 100 µM (inactive). The GI50 (LOX IMVI) was > 100 µM (inactive), the GI50 (LXFL 529) was > 100 µM (inactive) and the GI50 (M14) was > 100 µM (inactive). The GI50 (M19-MEL) was > 100 µM (inactive), the GI50 (MOLT-4) was > 100 µM (inactive) and the GI50 (Malme-3M) was > 100 µM (inactive). The GI50 (NCI-H226) was > 100 µM (inactive), the GI50 (NCI-H23) was > 100 µM (inactive) and the GI50 (NCI-H460) was > 100 µM (inactive). For the same compound, the GI50 (NCI-H522) was > 100 µM (inactive), the GI50 (OVCAR-3) was > 100 µM (inactive) and the GI50 (OVCAR-5) was > 100 µM (inactive). For the same compound, the GI50 (OVCAR-8) was > 100 µM (inactive), the GI50 (RPMI-8226) was > 100 µM (inactive) and the GI50 (RXF 393) was > 100 µM (inactive). The GI50 (SF-295) was > 100 µM (inactive), the GI50 (SF-539) was > 100 µM (inactive) and the GI50 (SK-MEL-28) was > 100 µM (inactive). The GI50 (SK-MEL-2) was > 100 µM (inactive), the GI50 (SK-MEL-5) was > 100 µM (inactive) and the GI50 (SK-OV-3) was > 100 µM (inactive). The GI50 (SN12C) was > 100 µM (inactive), the GI50 (SNB-19) was > 100 µM (inactive) and the GI50 (SNB-75) was > 100 µM (inactive). The GI50 (SNB-78) was > 100 µM (inactive), the GI50 (SR) was > 100 µM (inactive) and the GI50 (SW-620) was > 100 µM (inactive). The GI50 (TK-10) was > 100 µM (inactive), the GI50 (U-251) was > 100 µM (inactive) and the GI50 (UACC-257) was > 100 µM (inactive). For the same compound, the GI50 (UACC-62) was > 100 µM (inactive), the GI50 (UO-31) was > 100 µM (inactive) and the GI50 (XF498) was 63.8 µM (inactive).
For `CCOC(=O)NN1C(=O)C(=P(c2ccccc2)(c2ccccc2)c2ccccc2)C(C(=O)OC)=C1C`, the GI50 (786-0) was > 100 µM (inactive), the GI50 (A498) was > 100 µM (inactive) and the GI50 (A549) was > 100 µM (inactive). For the same compound, the GI50 (ACHN) was > 100 µM (inactive), the GI50 (CAKI-1) was > 100 µM (inactive) and the GI50 (CCRF-CEM) was > 100 µM (inactive). The GI50 (COLO 205) was > 100 µM (inactive), the GI50 (DLD-1) was > 100 µM (inactive) and the GI50 (DMS-114) was > 100 µM (inactive). The GI50 (DMS-273) was > 100 µM (inactive), the GI50 (EKVX) was > 100 µM (inactive) and the GI50 (HCC 2998) was > 100 µM (inactive). For the same compound, the GI50 (HCT-116) was > 100 µM (inactive), the GI50 (HCT-15) was over 100 µM and the GI50 (HL-60) was > 100 µM (inactive). For the same compound, the GI50 (HOP-18) was > 100 µM (inactive), the GI50 (HOP-62) was > 100 µM (inactive) and the GI50 (HOP-92) was > 100 µM (inactive). The GI50 (HT-29) was > 100 µM (inactive), the GI50 (IGROV-1) was > 100 µM (inactive) and the GI50 (K562) was > 100 µM (inactive). For the same compound, the GI50 (KM-20L2) was > 100 µM (inactive), the GI50 (KM12) was > 100 µM (inactive) and the GI50 (LOX IMVI) was > 100 µM (inactive). The GI50 (LXFL 529) was > 100 µM (inactive), the GI50 (M14) was > 100 µM (inactive) and the GI50 (M19-MEL) was > 100 µM (inactive). For the same compound, the GI50 (MOLT-4) was > 100 µM (inactive), the GI50 (Malme-3M) was > 100 µM (inactive) and the GI50 (NCI-H226) was > 100 µM (inactive). For the same compound, the GI50 (NCI-H23) was > 100 µM (inactive), the GI50 (NCI-H460) was > 100 µM (inactive) and the GI50 (NCI-H522) was > 100 µM (inactive). For the same compound, the GI50 (OVCAR-3) was > 100 µM (inactive), the GI50 (OVCAR-4) was > 100 µM (inactive) and the GI50 (OVCAR-5) was > 100 µM (inactive). The GI50 (OVCAR-8) was > 100 µM (inactive), the GI50 (RPMI-8226) was > 100 µM (inactive) and the GI50 (RXF 393) was > 100 µM (inactive). The GI50 (SF-268) was > 100 µM (inactive), the GI50 (SF-295) was > 100 µM (inactive) and the GI50 (SF-539) was > 100 µM (inactive). For the same compound, the GI50 (SK-MEL-2) was > 100 µM (inactive), the GI50 (SK-MEL-5) was > 100 µM (inactive) and the GI50 (SK-OV-3) was > 100 µM (inactive). The GI50 (SN12C) was > 100 µM (inactive), the GI50 (SNB-19) was > 100 µM (inactive) and the GI50 (SNB-75) was > 100 µM (inactive). For the same compound, the GI50 (SNB-78) was > 100 µM (inactive), the GI50 (SR) was > 100 µM (inactive) and the GI50 (SW-620) was > 100 µM (inactive). For the same compound, the GI50 (TK-10) was > 100 µM (inactive), the GI50 (U-251) was > 100 µM (inactive) and the GI50 (UACC-257) was > 100 µM (inactive). For the same compound, the GI50 (UACC-62) was > 100 µM (inactive), the GI50 (UO-31) was > 100 µM (inactive) and the GI50 (XF498) was > 100 µM (inactive).
